For one series, the system named is Hair growth of Beagles. Kind of series: Hair growth measurement in adult beagles fed diets with various levels of selenium. Format: in vivo, dog (Beagle). From the text:
Adult beagles of both male and females are used. They are between 1.2 and 3.7 years of age at the start of the experiment.
(§1) Study Design: Thirty-six adult dogs are divided into six groups of six dogs in each group based on their age, gender and body condition score so that the averages of those three criteria are similar among groups. All dogs are given the basal diet for three weeks (pre-treatment period) before they are allocated to one of the experimental diets. The third week of the pre-treatment period is considered as week 0 of the study. Hair growth is measured in weeks 0, 11 and 22 of the study using the method described below. Dogs are fed with the experimental diets for 24 weeks.
(§2) A torula yeast basal diet is used. The basal diet is nutritionally complete and balanced for an adult dog except for selenium. Different amounts of selenium (as selenomethionine) are added into the basal diet to form six experimental diets which contain 0, 0.05, 0.1, 0.5, 1 or 5 mg selenium/kg diet dry matter, respectively. Selenium concentrations in the experimental diets are confirmed by chemical analyses. The analyzed dietary selenium concentrations were 0.034, 0.085, 0.123, 0.527, 1.025 and 5.045 mg/kg dry matter, respectively.
Hair Growth Measurement: Hairs in an area of […] on the left side of the body above the hind leg and about 3 cm away from the spinal are clipped with an electronic clipper (Oster Pro™ Model 78400-01A, blade size: 40.1 mm, Oster Elite™). The hair is cut as close to the skin as possible. A tattoo dot of about 1 mm in diameter is made in the center of the clipped area using a tattoo marker (Spaulding Special Electric Tattoo Marker, Model SSEMK). Hair growth is measured by taking photographs from the same clipped area twice using the tattoo dot as a marker. The first photograph is taken right after the clipping and the second photograph four days later. A Polaroid close-up camera (CU-5) and Polaroid 665 films are used to take photographs. A glass slide is attached to the front frame of the camera to press hairs to the skin to minimize errors caused by the angle formed between standing hair and the skin. The image is magnified three times by the camera. Same exposure conditions are used for all dogs in the study. On each day of photograph shooting, a photograph is also taken of a ruler with clear markers under the same conditions and serves as a reference. After exposure, both prints and negatives of the films are treated according to the use directions. The negative films provide sharp and clear images of hairs and are used for hair growth measurement. The negative films are scanned (EPSON Expression 836XL) into a computer. Afterwards, the length of primary hairs in the film is measured using an image analyzing software (BioScan Optimas). The difference of the average hair lengths between the first and the second photographs from the same dog is the hair growth during the four-day period.

Series [1] can be described thus: Clinical signs, food intake, body weight, blood and thyroid hormone measurements in dogs during the 24-week feeding study. Format: in vivo, dog (Beagle). To be noted: diets with 0 to 5 mg added selenium/kg, study period 24 weeks. On the procedure: as §1, §2

Take `C[Se]CC[C@H](N)C(=O)O` [selenium, selenomethionine]: the Hair growth worked out at 0.21 mm/day in the series on Hair growth of Beagles (dietary Se 0.034 mg/kg dry matter (0 added), Week 0 (pre-treatment, basal diet)); 0.12 mm/day in the series on Hair growth of Beagles (dietary Se 0.034 mg/kg dry matter (0 added), Week 11); 0.12 mm/day in the series with Hair growth of Beagles (dietary Se 0.034 mg/kg dry matter (0 added), Week 22); 0.18 mm/day with Hair growth of Beagles (dietary Se 0.085 mg/kg dry matter (0.05 added), Week 0 (pre-treatment, basal diet)); 0.15 mm/day in the series with Hair growth of Beagles (dietary Se 0.085 mg/kg dry matter (0.05 added), Week 11); 0.11 mm/day in the series on Hair growth of Beagles (dietary Se 0.085 mg/kg dry matter (0.05 added), Week 22). The Hair growth with Hair growth of Beagles (dietary Se 0.123 mg/kg dry matter (0.1 added), Week 0 (pre-treatment, basal diet)) came out at 0.13 mm/day; in the series on Hair growth of Beagles (dietary Se 0.123 mg/kg dry matter (0.1 added), Week 11) it was 0.26 mm/day; in the series on Hair growth of Beagles (dietary Se 0.123 mg/kg dry matter (0.1 added), Week 22) it was 0.20 mm/day; with Hair growth of Beagles (dietary Se 0.527 mg/kg dry matter (0.5 added), Week 0 (pre-treatment, basal diet)), 0.15 mm/day; with Hair growth of Beagles (dietary Se 0.527 mg/kg dry matter (0.5 added), Week 11), 0.22 mm/day; with Hair growth of Beagles (dietary Se 0.527 mg/kg dry matter (0.5 added), Week 22) it was 0.23 mm/day. For the same molecule, the Hair growth in the series on Hair growth of Beagles (dietary Se 1.025 mg/kg dry matter (1 added), Week 0 (pre-treatment, basal diet)) is given as 0.18 mm/day; in the series on Hair growth of Beagles (dietary Se 1.025 mg/kg dry matter (1 added), Week 11) it was 0.26 mm/day; with Hair growth of Beagles (dietary Se 1.025 mg/kg dry matter (1 added), Week 22) it was 0.20 mm/day; with Hair growth of Beagles (dietary Se 5.045 mg/kg dry matter (5 added), Week 0 (pre-treatment, basal diet)) it was 0.20 mm/day; with Hair growth of Beagles (dietary Se 5.045 mg/kg dry matter (5 added), Week 11), 0.14 mm/day; in the series with Hair growth of Beagles (dietary Se 5.045 mg/kg dry matter (5 added), Week 22), 0.13 mm/day. Further, the “Effect on hair growth of dogs (conclusion)” value in the series on Hair growth of Beagles (dietary selenium concentrations from 0.1 to about 4.5 mg selenium/kg diet) is listed as “maximize hair growth of dogs”. In addition, in the series with Hair growth of Beagles (diets containing 0.1, 0.5 or 1 mg selenium/kg vs 0, 0.05 or 5 mg selenium/kg, week 11 and 22), the “Rate of hair growth compared between diet groups” value is listed as “significantly (p<0.05) higher rate of hair growth”. Further, the “Difference in hair growth among groups” value with Hair growth of Beagles (week 0 (pre-treatment)) was “no difference in hair growth among groups”. The “Average food intake and body weights” value in series [1] was “not affected by the dietary treatments”. Further, the “Blood CBC and chemistry measurements, serum total thyroxine and 3,5,3'-triiodothyronine” value in series [1] is “within the normal ranges”.

For the origin of these results see patent publication US20050019425A1, “Composition and method” (priority 2001, published 2005).
